# According to patent US20160257697A1, “THIOPHENE-SUBSTITUTED TETRACYCLIC COMPOUNDS AND METHODS OFUSE THEREOF FOR THE TREATMENT OF VIRAL DISEASES” (priority 2013, published 2016):
# pIC50: −log10 of the molar value. Like-named read-outs stand apart in the source and are kept apart here.
# Tests used:
# Assay in all cases: microbe, parasite or virus in culture
# Assay type in all cases: cell-based, Hepatitis C virus (HCV)
# [1] = test system: HCV replicon 1AY93H; details: Replicon Assay A
# Summary of the method: (§1)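 Three-day treatment of replicon cells (2000/well, 5% FBS, 0.5% DMSO), followed by TaqMan RT-PCR of replicon RNA with cyclophilin as internal control.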
# [2] = test system: HCV replicon 1A; details: Replicon Assay A
# Summary of the method: as §1
# [3] = test system: HCV replicon 2B; details: Replicon Assay A
# Summary of the method: as §1
# [4] = test system: HCV replicon 1B; details: Replicon Assay B
# [5] = test system: HCV replicon 1AQ30D; details: Replicon Assay B
# [6] = read-out: 1A Y93H IC50, replicon 1AY93H
# [7] = read-out: 1A Q30D IC50, replicon 1AQ30D
# [8] = Hepatitis C virus, HCV replicon 1A
# [9] = Hepatitis C virus, HCV replicon 1B
# [10] = Hepatitis C virus, read-out: 1A Q30D IC50, HCV replicon 1A Q30D
Compound,"pIC50 [1, 6]",pIC50 ([2]; replicon 1A),"pIC50 ([3]; read-out: 2B IC50, replicon 2B)",pIC50 ([4]; replicon 1B),"pIC50 [5, 7]","pIC50 [2, 8]","pIC50 [4, 9]","pIC50 [5, 10]",also measured
"COC(=O)NC(C(=O)N1CCC[C@H]1c1ncc(-c2ccc3c(c2)cc2n3C(c3ccc(C4CC4)s3)Oc3cc(-c4cnc([C@@H]5CCCN5C(=O)[C@@H](NC(=O)OC)C(C)C)[nH]4)cc(F)c3-2)[nH]1)C1CCO[C@H](C)C1 (single isomer, unassigned) [Compound 134]",11.70,11.60,11.52,11.59,10.82,–,–,–,–
"COC(=O)N[C@H](C(=O)N1CCC[C@H]1c1ncc(-c2ccc3c(c2)OC(c2ccc(C4CC4)s2)n2c-3c(F)c3cc(-c4cnc([C@@H]5C[C@H]6C[C@H]6N5C(=O)[C@@H](NC(=O)OC)C5C[C@@H](C)O[C@@H](C)C5)[nH]4)ccc32)[nH]1)C(C)C (single isomer, unassigned) [Compound 406]",–,–,–,–,–,11.64,11.55,10.08,"pIC50 ([1]; Hepatitis C virus, read-out: 1A Y93H IC50, HCV replicon 1A Y93H): 11.39; pIC50 ([3]; Hepatitis C virus, read-out: 2B IC50, HCV replicon 2B): 10.79"
"COC(=O)N[C@H](C(=O)N1CCC[C@H]1c1ncc(-c2cc(F)c3c(c2)OC(c2cc4c(s2)CCC4)n2c-3cc3cc(-c4cnc([C@@H]5CCCN5C(=O)[C@@H](NC(=O)OC)C5CCOCC5)[nH]4)ccc32)[nH]1)C(C)C (single isomer, unassigned) [Compound 620]",–,–,–,–,–,11.64,11.72,9.94,"pIC50 ([1]; read-out: 1A Y93H IC50, HCV replicon 1A Y93H): 11.23; pIC50 ([3]; read-out: 2B IC50, HCV replicon 2B): 10.99"
"COC(=O)N[C@H](C(=O)N1CCC[C@H]1c1ncc(-c2cc(F)c3c(c2)OC(c2ccc(C4CC4)s2)n2c-3c(F)c3cc(-c4cnc([C@@H]5CCCC5C(=O)[C@@H](NC(=O)OC)C5CCOCC5)[nH]4)ccc32)[nH]1)C(C)C (single isomer, unassigned) [Compound 363]",11.32,11.82,11.43,11.68,10.36,–,–,–,–
COC(=O)N[C@H](C(=O)N1CCC[C@@H]1c1ncc(-c2cc(F)c3c(c2)OC(c2ccc(C(C)C)s2)n2c-3cc3cc(-c4c[nH]c([C@@H]5CCCN5C(=O)[C@H](NC(=O)OC)C5C[C@@H](C)O[C@@H](C)C5)n4)ccc32)[nH]1)C(C)C (stereo partly drawn) [Compound 240],11.30,11.68,10.96,11.57,10.21,–,–,–,–
COC(=O)NC(C(=O)N1CCC[C@H]1c1ncc(-c2cc(F)c3c(c2)OC(c2ccc(C4CCC4)s2)n2c-3cc3cc(-c4cnc([C@@H]5CCCN5C(=O)[C@@H](NC(=O)OC)C5CCOCC5)[nH]4)ccc32)[nH]1)C(C)(C)F (stereo partly drawn) [Compound 250],–,–,–,–,–,–,–,–,"IC50 ([1]; Hepatitis C virus, read-out: 1A Y93H IC50 (nM), replicon 1AY93H): 0.003 nM; pIC50 ([2]; Hepatitis C virus, replicon 1A): 11.66; IC50 ([3]; Hepatitis C virus, read-out: 2B IC50 (nM), replicon 2B): 0.001 nM; pIC50 ([4]; Hepatitis C virus, replicon 1B): 11.54; IC50 ([5]; Hepatitis C virus, read-out: 1A Q30D IC50 (nM), replicon 1AQ30D): 0.013 nM"
